The text below walks through data of patent US4062948A, “Dihydromocimycin antibiotics” (Gist-Brocades N.V., priority 1970, dated 1977).

Structures are written as SMILES. Structures can show the parent of a compound that is named as a salt.

Format in all cases: in vivo
Test [1] in a line: growth promotion in pigs (Example III). The following applies: control = 100. The protocol:
The sodium salt of mocimycin as obtained in Example I, was pre-mixed with wheat flour which mixture, added to the feed, was administered to pigs. The amount of the antibiotic present in the feed (based on the weight of the feed) is given hereinbelow in Table VII, in which the average relative weights of the pigs after 6 and 12 weeks, respectively are given.

A short description of test [2]: growth promotion in slaughter chickens (Example II). The following applies: control = 100. An excerpt: Slaughter chickens are given mocimycin in the form of the sodium salt obtained in Example 1, in a mixture with component of the feed (wheat flour), the amount of antibiotic in the feed (based on the weight of the feed) being as specified in the following Table, which gives the weight of the chickens after 3, 5 and 7 weeks.

The test system of test [3] is microorganism causing Treponema dysentery. Nature of the test: pigs infected with Treponema dysentery (Example VI). From the text: Twenty pigs, 3 months old, were infected with the microorganism causing Treponema dysentery by administering to them feed mixed with a homogenous mixture of contents of the intestines and intestinal mucous membranes of two animals suffereing from the disease. The infected pigs were divided into four groups of five animals each and the animals were fed with the feed as a slurry diluted 1:1 with water for 1 week. The total amount of feed per animal was 1.2 kg each day and was given in two portions.
After 5 days, the first symptoms of the disease were observed from the thin faeces and confirmed by a microbiological investigation of the faeces and […] a week, the animals were treated as follows:
group 2: 100 ppm of tylosin were added to the feed;
group 3: 25ppm of dihydromocimycin were added to the feed; and
group 4: 50 ppm of dihydromocimycin were added to the feed.
The antibiotic-enriched feed was administered for a week. After that week, feed without any antibiotic was given again. Recovery from the infection was observed from the weights of the animals and from inspection samples of the faeces, macroscopically from their consistencies, and microscopically by means of a specific immuno-fluoroescence technique. During the test, one animal of each of groups 1, 3 and 4 died.
The results are shown in the following Table wherein the weights indicated are the averages at that time of the still living animals. The consistency of the faeces is indicated as follows:
+ means thin liquid; ± means thick liquid; - means normal. The results of the immuno-fluorescence technique are indicated quantitatively by indicating the number of Treponemas in the visual field: 5 means very crowded; 4 means many; 3 means about 10 Treponemas; 2 means 1 or 2 Treponemas, 1 means more visual fields necessary to find one Treponema, and - means negative.

As to `CC=CC=CC1OC(O)(C(CC)C(=O)NCC=CC=C(C)C(OC)C(C)C2OC(C=CC=CC=C(C)C(=O)c3c(O)cc[nH]c3=O)C(O)C2O)C(O)C(O)C1(C)C` (stereo not drawn) [sodium salt of mocimycin], the feed conversion in test [1] (5 ppm in feed, 6 weeks) is on record as 95; in test [1] (5 ppm in feed, 12 weeks), 98; in test [1] (10 ppm in feed, 6 weeks), 92.5; in test [1] (10 ppm in feed, 12 weeks) it was 99. The “growth (average relative weight)” value in test [1] (5 ppm in feed, 6 weeks) turned out to be 107; in test [1] (5 ppm in feed, 12 weeks), 104.5; in test [1] (10 ppm in feed, 6 weeks), 108.5; in test [1] (10 ppm in feed, 12 weeks), 104. Besides, the “weight of chickens relative to control (control = 100)” value worked out at 104% in test [2] (5 ppm in feed, 3 weeks); 103% in test [2] (5 ppm in feed, 5 weeks); 103% in test [2] (5 ppm in feed, 7 weeks); 107% in test [2] (10 ppm in feed, 3 weeks); 105% in test [2] (10 ppm in feed, 5 weeks); 104% in test [2] (10 ppm in feed, 7 weeks). The “weight of chickens relative to control (control = 100)” value in test [2] (20 ppm in feed, 3 weeks) is 109%; in test [2] (20 ppm in feed, 5 weeks), 107%; in test [2] (20 ppm in feed, 7 weeks), 105%.

Take `CC[C@H]1OC(=O)C[C@@H](O)[C@H](C)[C@@H](O[C@@H]2O[C@H](C)[C@@H](O[C@H]3C[C@@](C)(O)[C@@H](O)[C@H](C)O3)[C@H](N(C)C)[C@H]2O)[C@@H](CC=O)C[C@@H](C)C(=O)/C=C/C(C)=C/[C@@H]1CO[C@@H]1O[C@H](C)[C@@H](O)[C@@H](OC)[C@H]1OC` [tylosin, reference compound]: the Weights in test [3] (tylosin 100 ppm group, after 1 week (start of antibiotics)) came out at 22.2 kg; in test [3] (tylosin 100 ppm group, just before infection (baseline)), 24.4 kg; in test [3] (tylosin 100 ppm, after 2 weeks), 21.4 kg; in test [3] (tylosin 100 ppm, after 3 weeks), 23.2 kg.
